Broadly, the IC50 is the concentration that gives 50% inhibition.

One assay concerns the target HDAC1 (Homo sapiens (Human), UniProt Q13547). The note with it: read-out: HDAC1 IC50.
In the next assay the target is HDAC5 (Homo sapiens (Human), UniProt Q9UQL6). Particulars: read-out: HDAC5 IC50.
Chain of HDAC5 (Q9UQL6 656-1122): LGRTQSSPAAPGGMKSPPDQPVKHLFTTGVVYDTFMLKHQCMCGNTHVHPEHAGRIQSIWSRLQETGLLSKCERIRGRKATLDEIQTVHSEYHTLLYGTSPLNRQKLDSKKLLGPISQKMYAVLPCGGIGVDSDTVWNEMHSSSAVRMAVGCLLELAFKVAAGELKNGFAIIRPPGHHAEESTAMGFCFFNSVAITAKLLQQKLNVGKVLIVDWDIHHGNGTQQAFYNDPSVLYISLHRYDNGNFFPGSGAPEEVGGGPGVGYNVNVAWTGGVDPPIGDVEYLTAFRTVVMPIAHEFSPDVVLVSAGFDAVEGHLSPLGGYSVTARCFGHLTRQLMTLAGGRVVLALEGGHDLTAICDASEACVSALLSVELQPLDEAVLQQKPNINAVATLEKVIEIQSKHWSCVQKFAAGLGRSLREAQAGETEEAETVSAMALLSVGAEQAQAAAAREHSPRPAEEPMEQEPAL

Chain of HDAC1 (Q13547 whole entry): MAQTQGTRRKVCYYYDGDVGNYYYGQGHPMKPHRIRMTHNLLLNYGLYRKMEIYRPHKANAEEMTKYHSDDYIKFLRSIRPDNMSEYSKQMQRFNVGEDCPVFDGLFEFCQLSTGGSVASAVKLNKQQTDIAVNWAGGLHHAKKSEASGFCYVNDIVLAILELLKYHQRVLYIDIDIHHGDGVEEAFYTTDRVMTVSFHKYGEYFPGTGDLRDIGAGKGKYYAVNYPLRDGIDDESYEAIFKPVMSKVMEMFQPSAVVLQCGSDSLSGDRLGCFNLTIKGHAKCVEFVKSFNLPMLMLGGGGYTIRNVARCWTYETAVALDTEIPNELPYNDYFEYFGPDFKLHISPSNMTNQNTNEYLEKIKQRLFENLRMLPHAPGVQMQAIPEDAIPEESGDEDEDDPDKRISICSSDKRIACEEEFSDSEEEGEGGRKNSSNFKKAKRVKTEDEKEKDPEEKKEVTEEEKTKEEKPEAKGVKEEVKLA

In the case of `CC1(C)C(=O)NCCN1C(=O)[C@@H]1CCC(=O)N1c1ccc(-c2noc(C(F)(F)F)n2)c(F)c1` [Example 345, 4-(1-{3-fluoro-4-[5-(trifluoromethyl)-1,2,4-oxadiazol-3-yl]phenyl}-5-oxo-L-prolyl)-3,3-dimethylpiperazin-2-one], the IC50 was found to be 43000 nM on HDAC1 and 1500 nM at HDAC5.

As for `CCNC(=O)NC(Cc1ccc(-c2noc(C(F)(F)F)n2)cn1)c1cccc(C(F)(F)F)c1` (centres unmarked) [Example 179, 1-Ethyl-3-(2-(5-(5-(trifluoromethyl)-1,2,4-oxadiazol-3-yl)pyridin-2-yl)-1-(3-(trifluoromethyl)phenyl)ethyl)urea], the half-inhibitory concentration (IC50) was 340 nM at HDAC1 and 390 nM at HDAC5.

In the case of `FC(F)(F)c1nc(-c2ccc(COc3cc(Cl)ncn3)nc2)no1` [Example 309, 4-chloro-6-({5-[5-(trifluoromethyl)-1,2,4-oxadiazol-3-yl]pyridin-2-yl}methoxy)pyrimidine], the figures for the IC50 on HDAC1 and on HDAC5 were 4200 nM and 450 nM, respectively.

As to `O=C(NC(Cc1ccc(-c2noc(C(F)(F)F)n2)cn1)c1cccc(C(F)(F)F)c1)C1CCS(=O)(=O)CC1` (racemic) [Example 477, 1,1-dioxo-N-(2-{5-[5-(trifluoromethyl)-1,2,4-oxadiazol-3-yl]pyridin-2-yl}-1-[3-(trifluoromethyl)phenyl]ethyl)-llambda~6~-thiane-4-carboxamide], the IC50 was found to be 670 nM at HDAC1 and 620 nM at HDAC5.

`COC(=O)NC(Cc1ccc(-c2noc(C(F)(F)F)n2)cn1)c1cccc(C(F)(F)F)c1` (centres unmarked) [Example 180]: the IC50 at HDAC1 and on HDAC5 was 650 nM each time.

Turning to `Fc1cc(COc2nc3cccnc3n2C2CC2)ccc1-c1noc(C(F)(F)F)n1` [Example 272, 3-cyclopropyl-2-({3-fluoro-4-[5-(trifluoromethyl)-1,2,4-oxadiazol-3-yl]phenyl}methoxy)-3H-imidazo[4,5-b]pyridine], the IC50 came to 630 nM at HDAC1 and 31 nM on HDAC5.

In the case of `Cc1ncc(COc2nccc(-c3noc(C(F)(F)F)n3)c2Cl)c(C)n1` [Example 292, 5-[({3-chloro-4-[5-(trifluoromethyl)-1,2,4-oxadiazol-3-yl]pyridin-2-yl}oxy)methyl]-2,4-dimethylpyrimidine], the values for the half-maximal inhibitory concentration (IC50) at HDAC1 and on HDAC5 were 6500 nM and 540 nM, respectively.

For `Fc1cc(COc2cccc3c2CNCC3)ccc1-c1noc(C(F)(F)F)n1` [Example 265, 8-({3-fluoro-4-[5-(trifluoromethyl)-1,2,4-oxadiazol-3-yl]phenyl}methoxy)-1,2,3,4-tetrahydroisoquinoline], the 50% inhibitory concentration (IC50) at HDAC1 amounted to 5600 nM; at HDAC5 it was 280 nM.

Turning to `Fc1cc(COc2cccc(Cl)n2)ccc1-c1noc(C(F)(F)F)n1` [Example 286, 2-chloro-6-({3-fluoro-4-[5-(trifluoromethyl)-1,2,4-oxadiazol-3-yl]phenyl}methoxy)pyridine], the half-maximal inhibitory concentration (IC50) was 2700 nM at HDAC1 and 50 nM on HDAC5.

With `Fc1ccccc1OCc1cc(-c2noc(C(F)(F)F)n2)ccn1` [Example 250, 2-[(2-fluorophenoxy)methyl]-4-[5-(trifluoromethyl)-1,2,4-oxadiazol-3-yl]pyridine], the 50% inhibitory concentration (IC50) on HDAC1 was determined as 3100 nM; at HDAC5, 910 nM.

Consider `NCc1cccc(OCc2ccc(-c3noc(C(F)(F)F)n3)c(F)c2)c1` [Example 267, 1-[3-({3-fluoro-4-[5-(trifluoromethyl)-1,2,4-oxadiazol-3-yl]phenyl}methoxy)phenyl]methanamine], for which the IC50 was 1100 nM at HDAC1 and 200 nM on HDAC5.

For the compound `Fc1cc(COc2nccc3nccn23)ccc1-c1noc(C(F)(F)F)n1` [Example 268, 5-({3-fluoro-4-[5-(trifluoromethyl)-1,2,4-oxadiazol-3-yl]phenyl}methoxy)imidazo[1,2-c]pyrimidine], the values for the IC50 on HDAC1 and at HDAC5 were 2900 nM and 120 nM, respectively.

As for `Fc1cc(COc2cccc3[nH]ncc23)ccc1-c1noc(C(F)(F)F)n1` [Example 271, 4-({3-fluoro-4-[5-(trifluoromethyl)-1,2,4-oxadiazol-3-yl]phenyl}methoxy)-1H-indazole], the IC50 stood at 3700 nM on HDAC1 and 85 nM at HDAC5.

These data come from patent US11066396B2 (priority 2016, dated 2021).
